From patent publication US20250230193A1, “CYCLIC COMPOUND HAVING SELECTIVE KRAS INHIBITORY EFFECT ON HRAS AND NRAS” (CHUGAI SEIYAKU KABUSHIKI KAISHA, priority 2022, published 2025)
Where a SMILES comes first, the peptide text is derived from it. Bridges are numbered along the chain shown (N, C = ends). [ ]: non-standard residue; d: D form. The star is where a group is joined. hPhe(3-Cl-4-CF3) = N[C@@H](CCc1ccc(C(F)(F)F)c(Cl)c1)C(=O)O; NPrPhe(4-CF3) = CCCN[C@@H](Cc1ccc(C(F)(F)F)cc1)C(=O)O; NEtPhe(4-CF3) = CCN[C@@H](Cc1ccc(C(F)(F)F)cc1)C(=O)O; hPhe(3,4-Cl2) = N[C@@H](CCc1ccc(Cl)c(Cl)c1)C(=O)O; NMeGly(cPent) = CN[C@H](C(=O)O)C1CCCC1; Hyp = O=C(O)[C@@H]1C[C@@H](O)CN1; NMeD = CN[C@@H](CC(=O)O)C(=O)O; NMeL = CN[C@@H](CC(C)C)C(=O)O; Ac6c = NC1(C(=O)O)CCCCC1; Morpholide = C1CN(*)CCO1; NMeA = CN[C@@H](C)C(=O)O; Ac5c = NC1(C(=O)O)CCCC1; Aze = O=C(O)[C@@H]1CCN1; Ac3c = NC1(C(=O)O)CC1; Aib = CC(C)(N)C(=O)O; Sar = CNCC(=O)O

Legend:
[1] = target: GDP-bound NRAS wild-type protein (Homo sapiens, UniProt P01111); experiment: Binding to NRAS by surface plasmon resonance (SPR), Single Cycle Kinetics; conditions: KD ratio NRAS/KRAS, SPR
[2] = target: GDP-bound HRAS wild-type protein (Homo sapiens, UniProt P01112); experiment: Binding to HRAS by surface plasmon resonance (SPR), Single Cycle Kinetics; conditions: KD ratio HRAS/KRAS, SPR
Chain of GDP-bound HRAS wild-type protein (P01112 whole entry): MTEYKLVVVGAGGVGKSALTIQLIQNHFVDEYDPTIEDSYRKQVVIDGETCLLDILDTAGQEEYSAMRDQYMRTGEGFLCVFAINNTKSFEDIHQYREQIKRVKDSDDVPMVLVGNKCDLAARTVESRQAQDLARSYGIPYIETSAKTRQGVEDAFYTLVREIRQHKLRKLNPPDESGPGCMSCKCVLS

Chain of GDP-bound NRAS wild-type protein (P01111 whole entry): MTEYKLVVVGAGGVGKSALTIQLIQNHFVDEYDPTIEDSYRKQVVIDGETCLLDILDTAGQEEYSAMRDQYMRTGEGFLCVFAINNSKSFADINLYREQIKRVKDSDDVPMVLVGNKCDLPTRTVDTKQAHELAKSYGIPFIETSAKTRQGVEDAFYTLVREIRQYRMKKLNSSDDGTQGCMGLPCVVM

Row | SMILES | NRAS/KRAS (ratio of KD for GDP-bound NRAS wild-type to KD for KRAS) [1] | HRAS/KRAS (ratio of KD for GDP-bound HRAS wild-type to KD for KRAS) [2]
1 | CC[C@H](C)[C@@H]1NC(=O)[C@H](CC(C)C)N(C)C(=O)C[C@@H](C(=O)N2CCOCC2)N(C)C(=O)[C@H](C2CCCC2)N(C)C(=O)C2(CCCC2)NC(=O)[C@@H]2CCCN2C(=O)[C@H](CCc2ccc(Cl)c(Cl)c2)NC(=O)CN(C)C(=O)[C@H](Cc2ccc(C(F)(F)F)cc2)N(CC)C(=O)[C@@H]2CCN2C(=O)[C@H](C)N(C)C1=O [PP0223] ([NMeL]I[NMeA][Aze][NEtPhe(4-CF3)][Sar][hPhe(3,4-Cl2)]P[Ac5c][NMeGly(cPent)][NMeD]-Morpholide; lactam N-11) | C (A compound having a KD ratio of 0.1 or more and less than 3 is denoted as C) | C (A compound having a KD ratio of 0.1 or more and less than 3 is denoted as C)
2 | CCCN1C(=O)[C@@H]2CCN2C(=O)[C@H](C)N(C)C(=O)[C@H]([C@@H](C)CC)NC(=O)[C@H](CC(C)C)N(C)C(=O)C[C@@H](C(=O)N2CCOCC2)N(C)C(=O)[C@H](C2CCCC2)N(C)C(=O)C2(CC2)NC(=O)[C@@H]2CCCN2C(=O)[C@H](CCc2ccc(C(F)(F)F)c(Cl)c2)NC(=O)CN(C)C(=O)[C@@H]1Cc1ccc(C(F)(F)F)cc1 [PP0224] ([NMeL]I[NMeA][Aze][NPrPhe(4-CF3)][Sar][hPhe(3-Cl-4-CF3)]P[Ac3c][NMeGly(cPent)][NMeD]-Morpholide; lactam N-11) | C (A compound having a KD ratio of 0.1 or more and less than 3 is denoted as C) | B (a compound having 3 or more and less than 10 is denoted as B)
3 | CCCN1C(=O)[C@@H]2CCN2C(=O)[C@H](C)N(C)C(=O)[C@H]([C@@H](C)CC)NC(=O)[C@H](CC(C)C)N(C)C(=O)C[C@@H](C(=O)N2CCOCC2)N(C)C(=O)[C@H](C2CCCC2)N(C)C(=O)C(C)(C)NC(=O)[C@@H]2CCCN2C(=O)[C@H](CCc2ccc(C(F)(F)F)c(Cl)c2)NC(=O)CN(C)C(=O)[C@@H]1Cc1ccc(C(F)(F)F)cc1 [PP0225] ([NMeL]I[NMeA][Aze][NPrPhe(4-CF3)][Sar][hPhe(3-Cl-4-CF3)]P[Aib][NMeGly(cPent)][NMeD]-Morpholide; lactam N-11) | C (A compound having a KD ratio of 0.1 or more and less than 3 is denoted as C) | C (A compound having a KD ratio of 0.1 or more and less than 3 is denoted as C)
4 | CCCN1C(=O)[C@@H]2CCN2C(=O)[C@H](C)N(C)C(=O)[C@H]([C@@H](C)CC)NC(=O)[C@H](CC(C)C)N(C)C(=O)C[C@@H](C(=O)N2CCOCC2)N(C)C(=O)[C@H](C2CCCC2)N(C)C(=O)C2(CCCCC2)NC(=O)[C@@H]2CCCN2C(=O)[C@H](CCc2ccc(C(F)(F)F)c(Cl)c2)NC(=O)CN(C)C(=O)[C@@H]1Cc1ccc(C(F)(F)F)cc1 [PP0226] ([NMeL]I[NMeA][Aze][NPrPhe(4-CF3)][Sar][hPhe(3-Cl-4-CF3)]P[Ac6c][NMeGly(cPent)][NMeD]-Morpholide; lactam N-11) | C (A compound having a KD ratio of 0.1 or more and less than 3 is denoted as C) | B (a compound having 3 or more and less than 10 is denoted as B)
5 | CCCN1C(=O)[C@@H]2CCN2C(=O)[C@H](C)N(C)C(=O)[C@H]([C@@H](C)CC)NC(=O)[C@H](CC(C)C)N(C)C(=O)C[C@@H](C(=O)N2CCOCC2)N(C)C(=O)[C@H](C2CCCC2)N(C)C(=O)C2(CCCC2)NC(=O)[C@@H]2CCCN2C(=O)[C@H](CCc2ccc(Cl)c(Cl)c2)NC(=O)CN(C)C(=O)[C@@H]1Cc1ccc(C(F)(F)F)cc1 [PP0227] ([NMeL]I[NMeA][Aze][NPrPhe(4-CF3)][Sar][hPhe(3,4-Cl2)]P[Ac5c][NMeGly(cPent)][NMeD]-Morpholide; lactam N-11) | C (A compound having a KD ratio of 0.1 or more and less than 3 is denoted as C) | B (a compound having 3 or more and less than 10 is denoted as B)
6 | CCCN1C(=O)[C@@H]2CCN2C(=O)[C@H](C)N(C)C(=O)[C@H]([C@@H](C)CC)NC(=O)[C@H](CC(C)C)N(C)C(=O)C[C@@H](C(=O)N2CCOCC2)N(C)C(=O)[C@H](C2CCCC2)N(C)C(=O)C2(CCCC2)NC(=O)[C@@H]2C[C@@H](OCC)CN2C(=O)[C@H](CCc2ccc(C(F)(F)F)c(Cl)c2)NC(=O)CN(C)C(=O)[C@@H]1Cc1ccc(C(F)(F)F)cc1 [PP0228] ([NMeL]I[NMeA][Aze][NPrPhe(4-CF3)][Sar][hPhe(3-Cl-4-CF3)][Hyp](Et)[Ac5c][NMeGly(cPent)][NMeD]-Morpholide; lactam N-11) | C (A compound having a KD ratio of 0.1 or more and less than 3 is denoted as C) | B (a compound having 3 or more and less than 10 is denoted as B)
7 | CCCN1C(=O)CN(C)C(=O)CN(C)C(=O)[C@H]([C@@H](C)CC)NC(=O)[C@H](CC(C)C)N(C)C(=O)C[C@@H](C(=O)N2CCOCC2)N(C)C(=O)[C@H](C2CCCC2)N(C)C(=O)C2(CC2)NC(=O)[C@@H]2CCCN2C(=O)[C@H](CCc2ccc(C(F)(F)F)c(Cl)c2)NC(=O)CN(C)C(=O)[C@@H]1Cc1ccc(C(F)(F)F)cc1 [PP0229] ([NMeL]I[Sar][Sar][NPrPhe(4-CF3)][Sar][hPhe(3-Cl-4-CF3)]P[Ac3c][NMeGly(cPent)][NMeD]-Morpholide; lactam N-11) | B (a compound having 3 or more and less than 10 is denoted as B) | B (a compound having 3 or more and less than 10 is denoted as B)
8 | CCCN1C(=O)CN(C)C(=O)CN(C)C(=O)[C@H]([C@@H](C)CC)NC(=O)[C@H](CC(C)C)N(C)C(=O)C[C@@H](C(=O)N2CCOCC2)N(C)C(=O)[C@H](C2CCCC2)N(C)C(=O)C(C)(C)NC(=O)[C@@H]2CCCN2C(=O)[C@H](CCc2ccc(C(F)(F)F)c(Cl)c2)NC(=O)CN(C)C(=O)[C@@H]1Cc1ccc(C(F)(F)F)cc1 [PP0230] ([NMeL]I[Sar][Sar][NPrPhe(4-CF3)][Sar][hPhe(3-Cl-4-CF3)]P[Aib][NMeGly(cPent)][NMeD]-Morpholide; lactam N-11) | B (a compound having 3 or more and less than 10 is denoted as B) | C (A compound having a KD ratio of 0.1 or more and less than 3 is denoted as C)
9 | CCCN1C(=O)CN(C)C(=O)CN(C)C(=O)[C@H]([C@@H](C)CC)NC(=O)[C@H](CC(C)C)N(C)C(=O)C[C@@H](C(=O)N2CCOCC2)N(C)C(=O)[C@H](C2CCCC2)N(C)C(=O)C2(CCCCC2)NC(=O)[C@@H]2CCCN2C(=O)[C@H](CCc2ccc(C(F)(F)F)c(Cl)c2)NC(=O)CN(C)C(=O)[C@@H]1Cc1ccc(C(F)(F)F)cc1 [PP0231] ([NMeL]I[Sar][Sar][NPrPhe(4-CF3)][Sar][hPhe(3-Cl-4-CF3)]P[Ac6c][NMeGly(cPent)][NMeD]-Morpholide; lactam N-11) | B (a compound having 3 or more and less than 10 is denoted as B) | C (A compound having a KD ratio of 0.1 or more and less than 3 is denoted as C)
10 | CCCN1C(=O)CN(C)C(=O)CN(C)C(=O)[C@H]([C@@H](C)CC)NC(=O)[C@H](CC(C)C)N(C)C(=O)C[C@@H](C(=O)N2CCOCC2)N(C)C(=O)[C@H](C2CCCC2)N(C)C(=O)C2(CCCC2)NC(=O)[C@@H]2CCCN2C(=O)[C@H](CCc2ccc(Cl)c(Cl)c2)NC(=O)CN(C)C(=O)[C@@H]1Cc1ccc(C(F)(F)F)cc1 [PP0232] ([NMeL]I[Sar][Sar][NPrPhe(4-CF3)][Sar][hPhe(3,4-Cl2)]P[Ac5c][NMeGly(cPent)][NMeD]-Morpholide; lactam N-11) | B (a compound having 3 or more and less than 10 is denoted as B) | B (a compound having 3 or more and less than 10 is denoted as B)
11 | CCCN1C(=O)CN(C)C(=O)CN(C)C(=O)[C@H]([C@@H](C)CC)NC(=O)[C@H](CC(C)C)N(C)C(=O)C[C@@H](C(=O)N2CCOCC2)N(C)C(=O)[C@H](C2CCCC2)N(C)C(=O)C2(CCCC2)NC(=O)[C@@H]2C[C@@H](OCC)CN2C(=O)[C@H](CCc2ccc(C(F)(F)F)c(Cl)c2)NC(=O)CN(C)C(=O)[C@@H]1Cc1ccc(C(F)(F)F)cc1 [PP0233] ([NMeL]I[Sar][Sar][NPrPhe(4-CF3)][Sar][hPhe(3-Cl-4-CF3)][Hyp](Et)[Ac5c][NMeGly(cPent)][NMeD]-Morpholide; lactam N-11) | B (a compound having 3 or more and less than 10 is denoted as B) | C (A compound having a KD ratio of 0.1 or more and less than 3 is denoted as C)
12 | CC[C@H](C)[C@@H]1NC(=O)[C@H](CC(C)C)N(C)C(=O)C[C@@H](C(=O)N2CCOCC2)N(C)C(=O)[C@H](C2CCCC2)N(C)C(=O)C2(CC2)NC(=O)[C@@H]2CCCN2C(=O)[C@H](CCc2ccc(C(F)(F)F)c(Cl)c2)NC(=O)CN(C)C(=O)[C@H](Cc2ccc(C(F)(F)F)cc2)N(CC)C(=O)CN(C)C(=O)CN(C)C1=O [PP0234] ([NMeL]I[Sar][Sar][NEtPhe(4-CF3)][Sar][hPhe(3-Cl-4-CF3)]P[Ac3c][NMeGly(cPent)][NMeD]-Morpholide; lactam N-11) | B (a compound having 3 or more and less than 10 is denoted as B) | C (A compound having a KD ratio of 0.1 or more and less than 3 is denoted as C)
